The supplement of paper PMC8671470
± gives the standard deviation of the averaged measurements.

How the values were obtained:
[1] = tested on: HL-60; assay: area under dose-response curve (viability, 1 nM-10 uM) (fraction (0-1)); higher = more sensitive; conditions: 72 h
Procedure, shortened: (§1)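 Four-parameter log-logistic fits in drc and PharmacoGx supplied area under the curve where it is given. Underlying viability came from CellTiter-Glo, normalised to DMSO and proteasome-inhibitor wells, with the proteasome inhibitor at 10 μM. HL-60 cells in RPMI 1640 plus 10% FBS had been rescreened against the full library at five tenfold concentrations of 1–10,000 nM, in duplicate on 384-well plates, with DMSO or 100 nM of one of three metabolic inhibitors, for 72 h at 37 °C, 5% CO2.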

[2] = tested on: HL-60; assay: cell viability (% survival relative to DMSO control); higher = less cytotoxic; conditions: 72 h
Procedure, shortened: as §1

[3] = co-treatment: GSK2194069 100 nM
[4] = co-treatment: pictilisib 100 nM
[5] = 0.001 µM, co-treatment: AZD3965 100 nM
[6] = 0.001 µM, co-treatment: DMSO vehicle
[7] = 0.001 µM, co-treatment: GSK2194069 100 nM
[8] = 0.001 µM, co-treatment: pictilisib 100 nM
[9] = 0.01 µM, co-treatment: AZD3965 100 nM
[10] = 0.01 µM, co-treatment: DMSO vehicle
[11] = 0.01 µM, co-treatment: GSK2194069 100 nM
[12] = 0.01 µM, co-treatment: pictilisib 100 nM
[13] = 0.1 µM, co-treatment: AZD3965 100 nM
[14] = 0.1 µM, co-treatment: DMSO vehicle
[15] = 0.1 µM, co-treatment: GSK2194069 100 nM
[16] = 0.1 µM, co-treatment: pictilisib 100 nM
[17] = 1 µM, co-treatment: AZD3965 100 nM
[18] = 1 µM, co-treatment: DMSO vehicle
[19] = 1 µM, co-treatment: GSK2194069 100 nM
[20] = 1 µM, co-treatment: pictilisib 100 nM
[21] = 10 µM, co-treatment: AZD3965 100 nM
[22] = 10 µM, co-treatment: DMSO vehicle
[23] = 10 µM, co-treatment: GSK2194069 100 nM
[24] = 10 µM, co-treatment: pictilisib 100 nM

SMILES | area under dose-response curve ([1]; co-treatment: AZD3965 100 nM) | area under dose-response curve ([1]; co-treatment: DMSO vehicle) | area under dose-response curve [1, 3] | area under dose-response curve [1, 4] | cell viability [2, 5] [%] | cell viability [2, 6] [%] | cell viability [2, 7] [%] | cell viability [2, 8] [%] | cell viability [2, 9] [%] | cell viability [2, 10] [%] | cell viability [2, 11] [%] | cell viability [2, 12] [%] | cell viability [2, 13] [%] | cell viability [2, 14] [%] | cell viability [2, 15] [%] | cell viability [2, 16] [%] | cell viability [2, 17] [%] | cell viability [2, 18] [%] | cell viability [2, 19] [%] | cell viability [2, 20] [%] | cell viability [2, 21] [%] | cell viability [2, 22] [%] | cell viability [2, 23] [%] | cell viability [2, 24] [%]
OCCN1C[C@H](O)[C@@H](O)[C@H](O)[C@H]1CO [Miglitol] | < 0.0301 | < 0.0301 | < 0.0301 | < 0.0301 | 100.7 ± 0.68 | 96 ± 3.3 | 99.52 ± 0.9 | 97.8 ± 6.1 | 103.6 ± 0.14 | 101 ± 2.5 | 109 ± 3 | 104 ± 3.2 | 94.8 ± 14 | 96.3 ± 4.1 | 91.7 ± 16 | 86.9 ± 14 | 102 ± 2.9 | 94.9 ± 8.1 | 97.8 ± 7.8 | 98.1 ± 6.2 | 100.28 ± 0.095 | 99.54 ± 0.43 | 109 ± 7.6 | 106 ± 1.8
CCCCCCCNC=O [N-Heptyl-Formamide] | < 0.0301 | < 0.0301 | < 0.0301 | < 0.0301 | 104.63 ± 0.079 | 101.3 ± 0.22 | 99.7 ± 2.1 | 99.8 ± 14 | 106 ± 12 | 78.3 ± 35 | 103 ± 2.5 | 108 ± 15 | 98 ± 6.2 | 98.6 ± 5 | 99.6 ± 2.1 | 78.6 ± 23 | 95 ± 12 | 97.7 ± 4.5 | 97.7 ± 8.2 | 102 ± 4.4 | 97.3 ± 4.2 | 101 ± 2.9 | 94 ± 2.8 | 100 ± 6.2
CC(C)(F)C[C@H](N[C@@H](c1ccc(-c2ccc(S(C)(=O)=O)cc2)cc1)C(F)(F)F)C(=O)NC1(C#N)CC1 [Odanacatib] | < 0.0301 | < 0.0301 | < 0.0301 | < 0.0301 | 99.32 ± 0.47 | 95.8 ± 6.7 | 80.8 ± 23 | 66.7 ± 44 | 95.1 ± 11 | 98.4 ± 1.8 | 89.4 ± 3.8 | 112 ± 12 | 102 ± 1.2 | 100 ± 1.1 | 97.1 ± 2.8 | 94.9 ± 22 | 96.26 ± 0.29 | 95 ± 8.3 | 90 ± 7.7 | 96.43 ± 0.2 | 101 ± 3.8 | 97.6 ± 0.99 | 89.3 ± 6 | 90 ± 15
